Data published in patent US20260034158A1, “METHODS OF TREATING CANCER OF THE CENTRAL NERVOUS SYSTEM COMPRISING 5-ETHYNYL-2'-DEOXYURIDINE” (The University of North Carolina at Chapel Hill, priority 2022, published 2026).

Columns and labels:
[1] = tested on: nucleotide excision repair in HeLa cells; experiment: In vivo excision assay with anti-BrdU antibody immunoprecipitation; assay type: cell-based, human; conditions: for excised oligomers (nominal 26-mer) precipitated by anti-BrdU antibodies: 10 μM thymidine analog, 24 h, no UV
Procedure: (§1) UV Irradiation and Thymidine analog treatment: HeLa cells were grown to ˜80% confluence, culture medium was removed, cells were washed twice with PBS, and then were placed under a GE germicidal lamp emitting primarily 254-nm UV light (1 J/m^2/sec) connected with a digital timer for 20sec (20 J/m^2 in total). Cells were collected after 1 hour repair. Thymidine analogs were dissolved in sterile PBS (BrdU, EdU, CldU) or DMSO (IdU, F-ara-EdU, AmdU), and then added to cell culture medium at final concentration of 10 μM for indicated times.
(§2) In vivo excision assay: For in vivo excision assay with BrdU antibody, low molecular DNAs isolated by Hirt procedure as previously described (ref 17) were subject to immunoprecipitation with anti-BrdU antibody. For in vivo excision assay with TFIIH antibody, cells were lysed in buffer A (25 mM HEPES at pH7.9, 100 mM KCl, 12 mM MgCl2, 0.5 mM EDTA, 2 mM DTT, 12.5% glycerol, 0.5% NP-40), and excised oligonucleotides complexed with TFIIH protein were immunoprecipitated with TFIIH antibody. Purified oligonucleotides from BrdU IP or TFIIH IP were 3′ end-labeled by terminal deoxynucleotidyl transferase (TdT), α-^32P-ATP with a standard 50 mer oligonucleotide as spike internal control. After phenol-chloroform extraction and ethanol precipitation, labeled DNAs were fractionated with 12% denaturing sequencing gels.

[2] = tested on: Chinese hamster ovary (CHO) AA8 cell free extract excision nuclease; experiment: In vitro excision assay with mammalian cell-free extract; assay type: biochemical; conditions: 140bp duplex substrates, CHO AA8 CFE, three biological replicates
Procedure: In vitro excision assay: Radiolabeled 140-bp full length undamaged, (6-4) PP, and EdU damaged substrates were prepared, and in vitro excision assay with cell-free extract from Chinese hamster ovary (CHO) AA8 cells were carried out as previously described (ref 39). Briefly, Chinese hamster ovary (CHO) AA8 cell free extract (CFE) was prepared by the method of Manley (ref 42). Linear double-stranded DNA substrates (140bp in length) were prepared with centrally located (6-4) photoproduct or EdU as described previously (ref 43). The sequence of the centrally located 12-mers was […]; SEQ ID NO:4. For the (6-4) substrate, the (6-4) lesion was between T5 and T6. Single EdU was at T6 and, double EdU lesions were at T5 and T6. Unmodified 12mer and EdU containing 12mers were purchased from Integrated DNA Technologies.
The excision reaction with AA8 CFE (75 μg) was conducted with 20 fmol of 140bp substrates, 18 mM HEPES-KOH (pH 7.9), 24 mM KCl, 2 mM MgCl2, 4 mM ATP at 30° C. for 60 minutes as described (ref 35). After the excision reaction, the mixture was incubated with 0.34% SDS and 20 µg/ml Proteinase K at 55-60° C. for 15 minutes, then DNA was extracted with phenol:chloroform:isoamyl alcohol and precipitated with ethanol, resuspended in formamide/dye mixture, and separated with a 10% sequencing gel. Quantification of the signal intensities was done by using ImageJ.

[3] = tested on: primary human glioblastoma cell; conditions: same dose as Temozolomide; cited from earlier work
[4] = tested on: XPA-/-XPC-/-CSB-/- NHF1 cells; experiment: In vivo excision assay (anti-BrdU IP) in excision repair defective NHF1 cells; assay type: cell-based, human; conditions: XPA-/-XPC-/-CSB-/- mutant NHF1, 10 μM EdU, 24 h
From the text: (§3) Cell lines: NHF1 cells, telomerase-immortalized normal human fibroblast monolayers were obtained as described previously (ref 17), XPA-/-XPC-/-CSB-/- triple knock out NHF1 cells were generated using CRISPR Cas9 system with gRNAs (XPA: […] (SEQ ID NO:1); CSB: […] (SEQ ID NO:2); XPC: […] (SEQ ID NO:3)). The HeLa cell line was from the American Type Culture Collection (ATCC). NHF1 and HeLa cells were maintained in Dulbecco's modified Eagle's medium (DMEM) supplemented with 10% fetal bovine serum at 37° C. in a 5% CO2 humidified chamber.
as §2

NHF1 wild-type cells = experiment: In vivo excision assay (anti-BrdU IP) in wild-type NHF1 cells; assay type: cell-based, human; conditions: wild type NHF1, 10 μM EdU, 24 h
From the text: as §3, §2

HeLa cells [5] = experiment: Slot blot assay of thymidine analog incorporation into genomic DNA; assay type: cell-based, human; conditions: 10 μM thymidine analog, 24 h, anti-BrdU antibody
Procedure: Slot blot assay: HeLa cells were plated in 100 mm plates and treated with 10 μM thymidine analogs for 24 h. Genomic DNA was purified from cell pellets using QIAamp DNA mini kit (Qiagen, 51306). DNA concentrations were determined using a Qubit 3.0 fluorometer. 250 ng of each DNA was diluted with TE buffer (10 mM Tris-HCl pH8, 1 mM EDTA) to a total volume of 250 μL, then boiled at 90° C. for 10 min and cooled in ice water immediately. 250 μL cold ammonium acetate (2 M) was added to neutralize DNA, and then DNA samples were loaded onto nitrocellulose membranes using a slot blot apparatus. Membranes were transferred to a vacuum oven and baked for 1.5 h at 80° C., then blocked with 5% dried milk and incubated with either anti-BrdU antibody (1:1000) or anti-ssDNA antibody (1:5000) as loading control overnight at 4° C. After incubating with a horseradish peroxidase (HRP) labeled secondary antibody (1:10000) for 1 h, chemiluminescent signal was captured using a Bio-Rad ChemiDoc XRS imaging device.

[6] = compared with other thymidine analogs used to study replication; cited from earlier work
Taq DNA polymerase = Taq DNA polymerase (Thermus aquaticus, UniProt P19821); experiment: PCR of EdU-substituted genomic DNA with Taq DNA polymerase; assay type: biochemical; conditions: genomic DNA of cells treated with EdU for 24 hrs, CSA gene (946bp), 30 cycles
Taq DNA polymerase, sequence (P19821 whole entry): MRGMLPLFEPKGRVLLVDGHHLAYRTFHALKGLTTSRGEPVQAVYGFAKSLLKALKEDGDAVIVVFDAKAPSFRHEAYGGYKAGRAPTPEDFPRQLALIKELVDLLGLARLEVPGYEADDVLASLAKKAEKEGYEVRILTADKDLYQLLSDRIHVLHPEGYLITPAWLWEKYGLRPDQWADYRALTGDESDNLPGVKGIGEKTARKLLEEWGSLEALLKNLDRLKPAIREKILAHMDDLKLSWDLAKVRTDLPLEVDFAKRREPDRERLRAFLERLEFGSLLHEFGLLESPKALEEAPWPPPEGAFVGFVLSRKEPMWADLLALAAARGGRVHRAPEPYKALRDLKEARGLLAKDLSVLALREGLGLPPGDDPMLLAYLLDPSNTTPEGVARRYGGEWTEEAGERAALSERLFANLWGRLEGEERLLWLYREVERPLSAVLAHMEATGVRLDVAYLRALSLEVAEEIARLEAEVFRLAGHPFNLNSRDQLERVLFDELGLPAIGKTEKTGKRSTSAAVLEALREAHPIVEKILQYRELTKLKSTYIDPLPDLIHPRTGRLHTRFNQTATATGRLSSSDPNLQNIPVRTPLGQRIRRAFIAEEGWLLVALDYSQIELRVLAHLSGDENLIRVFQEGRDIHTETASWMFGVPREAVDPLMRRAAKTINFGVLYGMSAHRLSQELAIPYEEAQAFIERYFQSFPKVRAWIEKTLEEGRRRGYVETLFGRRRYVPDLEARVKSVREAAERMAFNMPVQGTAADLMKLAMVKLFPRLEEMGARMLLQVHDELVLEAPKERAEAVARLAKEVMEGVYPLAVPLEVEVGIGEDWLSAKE

HeLa cells [7] = experiment: XR-seq of EdU excision products; assay type: cell-based, human; conditions: for TS/NTS ratio genome-wide: RNA Pol II transcribed genes
[8] = in vivo; cited from earlier work
[9] = tested on: nucleotide excision repair in HeLa cells; experiment: In vivo excision assay with TFIIH antibody immunoprecipitation; assay type: cell-based, human; conditions: for substrate for excision repair: when incorporated into the DNA of replicating cells, summary statement
Procedure: as §1, §2

[10] = tested on: an osteosarcoma and a glioblastoma cell line; conditions: cited from earlier work
[11] = HeLa cells, 10 μM thymidine analog, 24 h

In the case of `C#Cc1cn([C@H]2C[C@H](O)[C@@H](CO)O2)c(=O)[nH]c1=O` [EdU, 5-Ethynyl-2′-deoxyuridine], the “time of peak level of excised EdU-containing fragments” value ([1]; 10 μM EdU for 3 to 48 hrs) is reported as 24 h, the “length of excised oligonucleotides under yellow light and ordinary room light” value ([1]; 10 μM EdU, 24 hours, both light conditions) is reported as 22-30 nts and the “excised oligomers (nominal 26-mer) precipitated by anti-BrdU antibodies” value (shortened to “excised oligomers”) [1] is reported as “precipitated oligomers in the form of nominal 26-mer”. For the same compound, the “time that EdU removal continues after pulse labeling” value ([1]; 4 hours EdU, then EdU-free medium, up to 12 hrs) was “at least 12 hrs”, the “in vitro excision (percentage of excision relative to total amount of substrate)” value [2] was “efficient substrate for the mammalian excision nucleases” and the “apoptosis relative to Temozolomide” value [3] was 3-5 fold. For the same compound, the “strand breaks relative to Temozolomide” value [3] was 3-5 fold, the excision product [4] was “no excision product” and the excision product (NHF1 wild-type cells) was “excision product seen”. The “incorporation into replicating HeLa cells” value (HeLa cells [5]) was “similarly incorporated”, the toxicity [6] was “highly toxic” and the “PCR product from EdU-substituted genomic DNA template” value (Taq DNA polymerase) was “produced full-size fragments”. The “XR-seq reads over active promoter, weak promoter, strong enhancer and transcription transition region” value (HeLa cells [7]; 15 ChromHMM chromatin states, 6 h to 48 h) was “relatively high”, the TS/NTS ratio genome-wide (HeLa cells [7]; 6 h EdU treatment) was ~2.5 and the TS/NTS ratio genome-wide (HeLa cells [7]; 48 h EdU treatment) was ~1.2. For the same compound, the “time at which TS/NTS repair ratio peaks” value (HeLa cells [7]; HACD3, DHFR, and MSH3 genes) was 6 h, the “peak of length distribution of excision products” value (HeLa cells [7]; anti-TFIIH IP, XR-seq) was 25-27 nucleotides and the “repair of EdU at DNase hypersensitivity peaks” value (HeLa cells [7]; gene and intergenic regions) was “significantly enriched”. The “crossing of the blood-brain-barrier” value [8] was “crosses the blood-brain-barrier”, the “length of excision products isolated with anti-TFIIH antibodies” value [9, 11] was 25-32 nucleotide and the “substrate for excision repair” value [9] was “substrate for excision repair”. For the same compound, the “suppressing cell proliferation compared with BrdU” value [10] was “outperform BrdU”.
In the case of `O=c1[nH]c(=O)n([C@H]2C[C@H](O)[C@@H](CO)O2)cc1Cl` [CldU, 5-Chloro-2′-deoxyuridine], the “excised oligomers” value [1] is reported as “not”, the “incorporation into replicating HeLa cells” value (HeLa cells [5]) is reported as “similarly incorporated” and the “substrate for excision repair” value [9] is reported as “not to be substrates for excision repair”.
With `[N-]=[N+]=NCc1cn([C@H]2C[C@H](O)[C@@H](CO)O2)c(=O)[nH]c1=O` [AmdU, 5-(azidomethyl)-2′-deoxyuridine] the “excised by human nucleotide excision repair (TFIIH IP)” value [9, 11] was “only EdU is excised” and the “substrate for excision repair” value [9] was “not to be substrates for excision repair”.
In the case of `C#Cc1cn([C@@H]2O[C@H](CO)[C@@H](O)[C@@H]2F)c(=O)[nH]c1=O` [F-ara-EdU, (2′S)-2-Deoxy-2-fluoro-5-ethynyluridine], the “excised by human nucleotide excision repair (TFIIH IP)” value [9, 11] is reported as “only EdU is excised” and the “substrate for excision repair” value [9] is reported as “not to be substrates for excision repair”.
With `O=c1[nH]c(=O)n([C@H]2C[C@H](O)[C@@H](CO)O2)cc1I` [IdU, 5-Iodo-2′-deoxyuridine] the “excised oligomers” value [1] was “not”, the “incorporation into replicating HeLa cells” value (HeLa cells [5]) was “similarly incorporated” and the “substrate for excision repair” value [9] was “not to be substrates for excision repair”.
For `O=c1[nH]c(=O)n([C@H]2C[C@H](O)[C@@H](CO)O2)cc1Br` [BrdU, 5-Bromo-2′-deoxyuridine], the “excised oligomers” value [1] was “not”, the “incorporation into replicating HeLa cells” value (HeLa cells [5]) was “similarly incorporated” and the “substrate for excision repair” value [9] was “not to be substrates for excision repair”.
